Reference: US5061794A, “Cephalosporin derivatives, and antibacterial agents” (priority 1986, dated 1991)
In brackets after ≈: the same amount, converted by molar mass. Like-named read-outs stand apart in the source and are kept apart here.

Key:
E. coli CSH(RE45) = assay: microbe, parasite or virus in culture; type: cell-based; conditions: Escherichia coli, 16 h, read-out: Minimum Inhibitory Concentration (MIC), *E. coli CSH(RE45), lactamase-producing strain; 10^6 CFU/ml
Method in brief: (§1)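 MIC values (μg/ml) come from Mueller Hinton agar dilution plates inoculated with overnight-grown bacteria at 10^6 CFU/ml and kept at 37° C. for 16 hours.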

E. coli CSH2 (RK1) = assay: microbe, parasite or virus in culture; type: cell-based; conditions: Escherichia coli, 16 h, read-out: Minimum Inhibitory Concentration (MIC), *E. coli CSH2 (RK1), lactamase-producing strain; 10^6 CFU/ml
Method in brief: as §1

E. cloacae 963 = assay: in vitro antibacterial activity, agar plate dilution method (MIC); type: cell-based; conditions: 10^6 CFU/ml
Method in brief: as §1

E. cloacae Nek 39 = assay: as above; type: cell-based; conditions: Enterobacter cloacae, NEK39, 16 h, read-out: Minimum Inhibitory Concentration (MIC), *E. cloacae Nek 39, lactamase-producing strain; 10^6 CFU/ml
Method in brief: as §1

E. coli GN5482 = assay: as above; type: cell-based; conditions: Escherichia coli, GN5482, 16 h
Method in brief: as §1

E. coli NIHJ JC2 = assay: as above; type: cell-based; conditions: Escherichia coli, NIHJJC2, 16 h, read-out: Minimum Inhibitory Concentration (MIC), E. coli NIHJ JC2, 10^6 CFU/ml, 37° C.
Method in brief: as §1

K. oxytoca GN10650 = assay: as above; type: cell-based; conditions: Klebsiella oxytoca, GN10650, 16 h, read-out: Minimum Inhibitory Concentration (MIC), *K. oxytoca GN10650, lactamase-producing strain; 10^6 CFU/ml
Method in brief: as §1

K. pneumoniae No. 42 = assay: as above; type: cell-based; conditions: Klebsiella pneumoniae, NO.42, 16 h, read-out: Minimum Inhibitory Concentration (MIC), *K. pneumoniae No. 42, lactamase-producing strain; 10^6 CFU/ml
Method in brief: as §1

K. pneumoniae PCI-602 = assay: as above; type: cell-based; conditions: Klebsiella pneumoniae, PCI602, 16 h, 10^6 CFU/ml
Method in brief: as §1

M. morganii GN5407 = assay: as above; type: cell-based; conditions: Morganella morganii, GN5407, 16 h, read-out: Minimum Inhibitory Concentration (MIC), *M. morganii GN5407, lactamase-producing strain; 10^6 CFU/ml
Method in brief: as §1

P. vulgaris HX-19 = assay: as above; type: cell-based; conditions: Proteus vulgaris, HX19, 16 h, read-out: Minimum Inhibitory Concentration (MIC)
Method in brief: as §1

P. vulgaris No. 33 = assay: as above; type: cell-based; conditions: Proteus vulgaris, 10^6 CFU/ml
Method in brief: as §1

S. aureus 209P NIHJ-JC1 = assay: as above; type: cell-based; conditions: Staphylococcus aureus, 16 h, read-out: Minimum Inhibitory Concentration (MIC)
Method in brief: as §1

S. marcescens IAM 1184 = assay: as above; type: cell-based; conditions: Serratia marcescens, IAM1184, 16 h, read-out: Minimum Inhibitory Concentration (MIC)
Method in brief: as §1

S. marcescens No. 16-2 = assay: as above; type: cell-based; conditions: Serratia marcescens, NO.162, 16 h
Method in brief: as §1

Ps. aeruginosa AK 109 = assay: as above; type: cell-based, Pseudomonas aeruginosa; conditions: Pseudomonas aeruginosa, AK109, 16 h, read-out: Minimum Inhibitory Concentration (MIC)
Method in brief: as §1

Ps. aeruginosa AKR17 = assay: as above; type: cell-based, Pseudomonas aeruginosa; conditions: Pseudomonas aeruginosa, AKR17, 16 h, read-out: Minimum Inhibitory Concentration (MIC), Ps. aeruginosa AKR17; 10^6 CFU/ml
Method in brief: as §1

Ps. aeruginosa IF03445 = assay: as above; type: cell-based, Pseudomonas aeruginosa; conditions: Pseudomonas aeruginosa, IF03445, 16 h, read-out: Minimum Inhibitory Concentration (MIC), Ps. aeruginosa IF03445; 10^6 CFU/ml
Method in brief: as §1

Ps. cepacia 23 = assay: as above; type: cell-based, Pseudomonas cepacia; conditions: Burkholderia cepacia, 16 h; Ps. cepacia 23; 10^6 CFU/ml; read-out: Minimum Inhibitory Concentration (MIC)
Method in brief: as §1

A. calcoaceticus No. 4 = assay: as above; type: cell-based, Acinetobacter calcoaceticus; conditions: Acinetobacter calcoaceticus, NO.4, 16 h, 10^6 CFU/ml
Method in brief: as §1

[1] = tested on: Enterobacter cloacae GN 5797; assay: β-lactamase inducibility; type: cell-based; conditions: antibiotic at 50, 10 and 1 μg/ml; cephaloridine as substrate
Procedure: The assay method for induction of β-lactamase by β-latam antibiotics was as follows:
The test organism, Enterobacter cloacae GN 5797, was grown overnight in Mueller Hinton broth (Dlfco Laboratories, Detroit, Mich.) at 37° C. The culture was diluted 10-fold into 20 ml of the flesh medium and incubated with shaking at 37° C. After 2 hours of incubation, antibiotics were added to final concentrations of 50 μg/ml, 10 μg/ml and 1 μg/ml, and the incubation was continued. At 1 hour intervals after the addition of antibiotic, 3 ml of sample was taken, and immediately added with 0.1 ml of 50 mM sodium azide. The cells were harvested and washed with 50 mM phosphate buffer (ph 7.0). The cells were suspended in 5 ml of 50 mM phosphate buffer and disrupted with a sonicater in an ice-water bath. The broken cells were centrifuged at 16,500 G for 40 minutes at 4° C., and the resulting supernatant fluid was used as the crude enzyme. β-Lactamase activity was determined by a sopectrophotometric method (Antmicrob. Agents Chemother. 17, 355-358, 1980) with cephaloridine as substrate. The concentration of protein was determined by the method of Lowry (J. Biol. Chem. 193, 265-275, 1951). […] As a representative example, the compound of EXAMPLE 50 was administered to mice by means of subcutaneous administration, and the concentration in the blood was measured.

[2] = concentration in blood of mice after subcutaneous administration; type: in vivo, mice (ddY type, male); conditions: mouse, sc, 20 mg/kg; for concentration at 0.125 h: 7.5 min; for concentration at 0.25 h: 15 min; for concentration at 0.5 h: 30 min; for concentration at 1 h: 60 min; for concentration at 2 h: 120 min
[3] = NO.33, 16 h, read-out: Minimum Inhibitory Concentration (MIC), *P. vulgaris No. 33, lactamase-producing strain
[4] = S. marcescens IAM 1184, 10^6 CFU/ml
[5] = read-out: Minimum Inhibitory Concentration (MIC)
[6] = Ps. aeruginosa AK 109, 10^6 CFU/ml
[7] = A. calcoaceticus No. 4, read-out: Minimum Inhibitory Concentration (MIC)
[8] = Enterobacter cloacae, 963, 16 h, read-out: Minimum Inhibitory Concentration (MIC), E. cloacae 963
[9] = read-out: Minimum Inhibitory Concentration (MIC), K. pneumoniae PCI-602
[10] = S. aureus 209P NIHJ-JC1, 10^6 CFU/ml, 37° C., 16 hours
[11] = read-out: Minimum Inhibitory Concentration (MIC), A. calcoaceticus No. 4

SMILES	MIC (E. coli CSH(RE45)) [µg/mL]	MIC (E. coli CSH2 (RK1)) [µg/mL]	MIC (E. cloacae Nek 39) [µg/mL]	MIC (E. coli NIHJ JC2) [µg/mL]	MIC (K. oxytoca GN10650) [µg/mL]	MIC (K. pneumoniae No. 42) [µg/mL]	MIC (M. morganii GN5407) [µg/mL]	MIC (P. vulgaris HX-19; P. vulgaris HX-19, 10^6 CFU/ml) [µg/mL]	MIC (P. vulgaris No. 33; [3]) [µg/mL]	MIC (S. aureus 209P NIHJ-JC1) [µg/mL]	MIC (S. marcescens IAM 1184; [4]) [µg/mL]	MIC (S. marcescens No. 16-2; [5]) [µg/mL]	MIC (Ps. aeruginosa AK 109; [6]) [µg/mL]	MIC (Ps. aeruginosa AKR17) [µg/mL]	MIC (Ps. aeruginosa IF03445) [µg/mL]	MIC (Ps. cepacia 23) [µg/mL]	β-lactamase inducibility [1]	MIC (E. cloacae 963; [8]) [µg/mL]	MIC (E. coli GN5482; [5]) [µg/mL]	MIC (K. pneumoniae PCI-602; [9]) [µg/mL]	further results
CC(C)(O/N=C(\C(=O)N[C@@H]1C(=O)N2C(C(=O)O)=C(CSc3nnc(-c4ccc(O)c(O)c4)s3)CS[C@H]12)c1csc(N)n1)C(=O)O [Ex. 34]	< 0.006	< 0.006	0.1 (≈ 0.144 µM)	0.1 (≈ 0.144 µM)	0.025 (≈ 0.036 µM)	0.0125 (≈ 0.018 µM)	0.05 (≈ 0.0721 µM)	< 0.006	0.025 (≈ 0.036 µM)	12.5 (≈ 18 µM)	0.025 (≈ 0.036 µM)	0.1 (≈ 0.144 µM)	0.1 (≈ 0.144 µM)	1.56 (≈ 2.25 µM)	0.39 (≈ 0.562 µM)	< 0.006	no substantial β-lactamase-inducing activity was observed	–	–	–	MIC (E. cloacae 963; Enterobacter cloacae, 16 h, E. cloacae 963, read-out: Minimum Inhibitory Concentration (MIC)): 0.1 µg/mL (≈ 0.144 µM); MIC (E. coli GN5482; read-out: Minimum Inhibitory Concentration (MIC), *E. coli GN5482, lactamase-producing strain, 10^6 CFU/ml): 0.78 µg/mL (≈ 1.12 µM); MIC (K. pneumoniae PCI-602; K. pneumoniae PCI-602, read-out: Minimum Inhibitory Concentration (MIC)): 0.0125 µg/mL (≈ 0.018 µM); MIC (A. calcoaceticus No. 4; [7]): 0.05 µg/mL (≈ 0.0721 µM)
CC(C)(O/N=C(\C(=O)N[C@@H]1C(=O)N2C(C(=O)O)=C(CSc3nnc(-c4ccc(O)c(O)c4)o3)CS[C@H]12)c1csc(N)n1)C(=O)O [Ex. 11, disodium 7β-[2-(2-aminothiazol-4-yl)-(1-carboxylate-1-methylethoxyimino)acetamido]-3-[5(3,4-dihydroxyphenyl)-1,3,4-oxadiazol-2-yl]thiomethyl-3-cephem-4-carboxylate]	1.56	< 0.006	0.05	0.1	0.0125	0.025	0.05	< 0.006	0.025	–	0.0125	0.39	0.2	1.56	0.39	< 0.006	no substantial β-lactamase-inducing activity was observed	0.025	0.39	< 0.006	MIC (S. aureus 209P NIHJ-JC1; [10]): 25 µg/mL; MIC (A. calcoaceticus No. 4; [7]): 0.05 µg/mL
CC(C)(O/N=C(\C(=O)N[C@@H]1C(=O)N2C(C(=O)O)=C(CSc3nc4cc(O)c(O)cc4o3)CS[C@H]12)c1csc(N)n1)C(=O)O [Example 76, disodium 7 β-[2-(2-aminothiazol-4-yl)-2-(1-carboxylate-1-methylethoxyimino)acetamido]-3-(5,6-dihydroxybenzoxazol-2-yl) thiomethyl-3-cephem-4-carboxylate]	–	–	–	–	–	–	–	–	–	–	–	–	–	–	–	–	no substantial β-lactamase-inducing activity was observed	–	–	–	–
CC(C)(ON=C(C(=O)NC1C(=O)N2C(C(=O)O)=C(CSc3nc(C(=O)O)c(-c4ccc(O)c(O)c4)s3)CSC12)c1csc(N)n1)C(=O)O (stereo not drawn) [Ex. 50, trisodium 7β-[2-(2-aminothizaol-4-yl)-2-(1-carboxylate-1-methylethoxyimino)acetamido]-3-[4-carboxylate-5-(3,4-dihydroxyphenyl)thiazol-2-yl]-thiomethyl-3-cephem-4-carboxylate]	0.0125	< 0.006	0.025	0.39	0.025	0.05	0.025	< 0.006	–	–	0.025	–	–	1.56	0.39	< 0.006	–	0.0125	0.39	< 0.006	MIC (P. vulgaris No. 33; 16 h, *P. vulgaris No. 33, lactamase-producing strain, read-out: Minimum Inhibitory Concentration (MIC)): < 0.006 µg/mL; MIC (S. aureus 209P NIHJ-JC1; [10]): 50 µg/mL; MIC (S. marcescens No. 16-2; read-out: Minimum Inhibitory Concentration (MIC), *S. marcescens No. 16-2, lactamase-producing strain, 10^6 CFU/ml): 0.78 µg/mL; MIC (Ps. aeruginosa AK 109): 0.39 µg/mL; MIC (A. calcoaceticus No. 4; [11]): 0.1 µg/mL; concentration at 0.125 h [2]: 60500 ng/mL; concentration at 0.25 h [2]: 67000 ng/mL; concentration at 0.5 h [2]: 52300 ng/mL; concentration at 1 h [2]: 18500 ng/mL; concentration at 2 h [2]: 3100 ng/mL; concentration at 4 h ([2]; 240 min): 220 ng/mL
CC(C)(O/N=C(\C(=O)N[C@@H]1C(=O)N2C(C(=O)[O-])=C(C[n+]3ccccc3)CS[C@H]12)c1csc(N)n1)C(=O)O [ceftazidime, reference compound]	–	–	1.56 (≈ 2.85 µM)	0.1 (≈ 0.183 µM)	0.1 (≈ 0.183 µM)	0.39 (≈ 0.714 µM)	0.1 (≈ 0.183 µM)	–	0.05 (≈ 0.0915 µM)	6.25 (≈ 11.4 µM)	–	1.56 (≈ 2.85 µM)	–	–	1.56 (≈ 2.85 µM)	–	–	0.1 (≈ 0.183 µM)	1.56 (≈ 2.85 µM)	0.025 (≈ 0.0457 µM)	MIC (P. vulgaris HX-19): 0.025 µg/mL (≈ 0.0457 µM); MIC (S. marcescens IAM 1184): < 0.006 µg/mL; MIC (Ps. aeruginosa AK 109): 0.78 µg/mL (≈ 1.43 µM); MIC (A. calcoaceticus No. 4; [11]): 6.25 µg/mL (≈ 11.4 µM); concentration at 0.125 h [2]: 25400 ng/mL; concentration at 0.25 h [2]: 24100 ng/mL; concentration at 0.5 h [2]: 17300 ng/mL; concentration at 1 h [2]: 3300 ng/mL; concentration at 2 h [2]: 200 ng/mL
